According to US20160184201A1, “ANTIPERSPIRANT/DEODORANT COMPOSITIONS” (COLGATE-PALMOLIVE COMPANY, priority 2013, published 2016):

Test system: Staphyloccus haemolyticus
Assay: Antimicrobial activity: minimum inhibition concentration by two-fold serial dilution in a 96-well plate (optical density, confirmed by agar streak)
Type: cell-based
Settings: for bacterial growth in the first well of the 96-well plate: 1% L-Lactide solution
Procedure: 1. Formulate a 1% or 10000 ppm and 3% or 30000 ppm solution of the neat L-Lactide active tested by weight and vortex until homogeneous in a 50 mL centrifuge tube. 2. Place solutions in shaking incubator at 200 rpm and 37° C. for 1 hour. 3. Repeat the formulation of the solution and shaking incubation for 4 hour and 24 hour time points. 4. Label 96-well plate to indicate positive and negative controls and the active tested against an odor causing bacteria, Staphyloccus haemolyticus. 5. Using a 96-well plate, pipette 100 uL of Tryptic Soy Broth (TSB) into all of the wells. 6. In the first well, add 100 uL of the active solution or desired solvent for positive and negative controls to achieve a total of 200 uL in the first column of wells. 7. Set the multi-channel pipette to 100 uL and begin mixing the contents in the first column of wells and transfer 100 uL of the mixture into each successive well creating two-fold serial dilutions. 8. Repeat until the 12th column is reached making sure to dispose the 100 uL from the last well leaving 100 uL in all of the wells. 9. In the negative control wells add 100 uL of Phosphate Buffered Saline (PBS). Add 100 uL of bacteria (optical density equals to 0.1) to all other wells. 10. Incubate 96-well plate overnight at 37° C. or at room temperature for 48 hours. 11. Minimum inhibition concentration of the sample is determined by measuring the optical density of the 96 plate.

Compound: CC1OC(=O)C(C)OC1=O [L-Lactide, 3,6-dimethyl-1,4-dioxane-2,5-dione]
- bacterial growth in the first well of the 96-well plate (1 hour of shaking incubation (200 rpm, 37° C.), first well, 4-fold dilution of the sample): some bacterial growth
- bacterial growth in the first well of the 96-well plate (4 hours of incubation, same first well, 4-fold dilution): complete bacteria kill
- bacterial growth in wells 1 and 2 of the 96-well plate (3% L-Lactide solution, 1 hour of shaking incubation, dilution factor 4 and 8 fold): no bacterial growth
- bacterial growth in the third well of the 96-well plate (3% L-Lactide solution, 24 hours of shaking incubation, third well, dilution 16 fold): bacteria growth is prevented
